The values that follow come from article PMC11621109, “Increasing sustainability and reproducibility of in vitro toxicology applications: serum-free cultivation of HepG2 cells” (Frontiers in Toxicology, 2024).

Holding throughout (assay type): cell-based, human
The test system of data set [1] is GSH content of HepG2 cells. The data set can be described thus: GSH-Glo glutathione assay (oxidative stress). Particulars: 24 h. As for the experimental part:
To assess oxidative stress in cells in response to compound treatment, the GSH-Glo™ Glutathione Assay from Promega was used according to manufacturer’s instructions (V6912). HepG2 cells cultivated in standard medium containing FBS, Advanced DMEM/F12 or TCM® Serum Replacement were seeded in 384-well plates, incubated for 24 h, and subsequently treated with the MIP-DILI reference compounds, negative controls, or internal controls in a three-fold dilution series performed in triplicates using the Tecan 300e Dispenser ([Dragovic et al., 2016]). Treatment was performed for 24 h.
Assay reagents and plates were first equilibrated to room temperature. GSH-Glo™ Reagent 1x was obtained by diluting Luciferin-NT substrate and Glutathione S-Transferase 1:100 in GSH-Glo™ Reaction Buffer. Luciferin Detection reagent was dissolved in Reconstitution Buffer with Esterase.
The medium was aspirated, GSH-Glo™ Reagent 1x was added to the cells and plates were shaken for 2 min and subsequently incubated for 30 min at room temperature protected from light. Afterwards, reconstituted Luciferin Detection Reagent was added, and cells were again shaken for 2 min before incubation for 15 min at room temperature in the dark. Luminescence was measured using the Varioskan Plate Reader from Thermo Fisher.

The subject of data set [2] is HSP70 (stress response marker). The data set can be described thus: Cellular fingerprint assay (Luminex): HSP70. As to conditions: 24 h. As to the method: (§1) To measure intracellular drug response markers, HepG2 cells cultivated in standard medium containing FBS, Advanced DMEM/F12 or TCM® Serum Replacement were seeded in 384-well plates and incubated for 24 h. After incubation, cells were treated with selected MIP-DILI compounds or negative controls in a three-fold dilution series performed in triplicates using the Tecan 300e Dispenser ([Dragovic et al., 2016]). Additionally, cells were treated with assay specific control substances (see Supplementary Table S2). Treatment was performed for 24 h. After treatment, media was carefully aspirated und cells were lysed by adding 40 µL lysis buffer (Supplementary Table S3) to each well. The plates were incubated for 30 min at 4°C and either stored at −80°C or used immediately.
(§2) Intracellular drug response markers were assessed using the Luminex technology. Color-coded beads from NMI specific for one analyte each were used to qualify and quantify p-serin 10 of Histon H3 (cell division marker), LC3B (autophagy marker), PARP (cell death/apoptosis marker), HSP70 (stress response marker), p-serin 2/5 of RNA-Polymerase II (protein transcription marker), p-serin 422 of EIF4B (protein synthesis marker) and HIF1-alpha (oxidative stress marker).
(§3) For hybridization, 25 μL cell lysate of each sample was transferred to a fresh 384-well plate. 25 μL prepared bead mix and 25 µL assay buffer were added and the plate was sealed. Plates were incubated for 16–20 h at 4°C and 600 rpm. The TS Pro thermal plate shaker from CellMedia was used for all incubation steps.
(§4) After incubation the plates were washed and successively incubated with 15 µL detection antibody (1 h, RT, 650 rpm) and 15 µL streptavidin, R-phycoerythrin conjugate (SAPE; 45 min, RT, 650 rpm). After each step, the plates were washed three times with wash buffer. Before measurement, 90 µL assay buffer was added to each well and the plates were incubated for 10 min at RT and 700 rpm. Measurement was performed using the Luminex™ FlexMAP 3D from ThermoFisher.

Data set [3] relates to p-serin 2/5 of RNA-Polymerase II. The data set can be described thus: Cellular fingerprint assay (Luminex): RNA Pol II. Particulars: 24 h. As to the method:
as §1, §2, §3, §4

In data set [4] the test system is HepG2 cells. Put plainly: Cellular fingerprint assay: overall marker response / cell death. Particulars: 24 h. As for the experimental part:
as §1, §2
(§5) For hybridization, 25 μL cell lysate of each sample was transferred to a fresh 384-well plate. […]

The subject of data set [5] is PARP (cell death/apoptosis marker). Put plainly: Cellular fingerprint assay (Luminex): PARP. Particulars: 24 h. As to the method: as §1, §2, §3, §4
For data set [6], the system named is p-serin 422 of EIF4B. Put plainly: Cellular fingerprint assay (Luminex): EIF4B. Particulars: 24 h; all culture conditions (amiodarone: highest concentration). As to the method: as §1, §2, §5
Data set [7] concerns HepG2 cells. Put plainly: Mitochondrial toxicity assay (Glucose/Galactose assay). As to conditions: HepG2 cultured in Advanced DMEM/F12; 2 h treatment. As for the experimental part: To assess mitochondrial toxicity, the Glucose/Galactose Assay was used. HepG2 cells cultivated in standard medium containing FBS, Advanced DMEM/F12 or TCM® Serum Replacement were seeded in 384-well plates and incubated for 48 h. Cells were washed once, and subsequently switched to DMEM (ThermoFisher, 11966025) supplemented with sodium pyruvate, HEPES and either 25 mM D-glucose or 10 mM D-galactose without FBS to avoid residual glucose. Cells were pre-incubated for 4 h before treatment with the MIP-DILI reference compounds, negative controls or internal controls ([Dragovic et al., 2016]). Treatment was performed in a three-fold dilution series in triplicates using the Tecan 300e Dispenser. Cells were treated for 2 h, and the read-out was performed by measuring cell viability using the CellTiter-Glo® reagent as described previously. IC50 values were obtained from dose response curves in GraphPad Prism using a log(inhibitor) vs. response model (variable slope, four parameters, bottom constraint = 0). Mitochondrial toxicity was assessed by calculating the IC50Glc/IC50Gal ratio and the threshold for risk for mitochondrial toxicity was set at >2.

The subject of data set [8] is LC3B (autophagy marker). Put plainly: Cellular fingerprint assay (Luminex): LC3B. Particulars: 24 h. As for the experimental part:
as §1, §2, §5

The test system of data set [9] is HIF1-alpha (oxidative stress marker). The data set can be described thus: Cellular fingerprint assay (Luminex): HIF-1-alpha. As to conditions: 24 h. As to the method:
as §1, §2, §3, §4

[10] abbreviates: all culture conditions (amiodarone: highest concentration).
[11] abbreviates: comparable results for all culture conditions.
Setting [12] is: highest concentration, across all media.

*1 amine or outer side, *2 acyl side, *3 side chain or, on linkers, in order; H or OH if unused. Where a SMILES comes first, the peptide text is derived from it. Bridges are numbered along the chain shown (N, C = ends). Roman numbers before positions name the chains, in order. [ ]: non-standard residue; d: D form. Actinocin(9to1) = Cc1c2oc3c(C)ccc(C(=O)[*:1])c3nc-2c(C(=O)[*:2])c(N)c1=O; NMeV = CN[C@H](C(=O)O)C(C)C; Sar = CNCC(=O)O A value given as a limit tells only on which side of the number the result lay.

As to `CCCCS(=N)(=O)CCC(N)C(=O)O` (stereo not shown) [Buthionine sulfoximine (BSO), Buthionine sulfoximine], the “changes in GSH” value in [1] (independently from viability, less profound in serum-free media) was “strong decrease in GSH”.

In the case of `COC1=C2C[C@@H](C)C[C@H](OC)[C@H](O)[C@@H](C)/C=C(\C)[C@H](OC(N)=O)[C@@H](OC)/C=C\C=C(/C)C(=O)NC(=CC1=O)C2=O` [geldanamycin, Geldanamycin], the “fold change (response, Figure 7B)” value in data set [2] (Advanced DMEM/F12) is 20.6; in data set [2] (TCM), 8.7; in data set [2] (standard medium), 7.4.

As for `CN(C)C(=N)N=C(N)N` [Metformin], the “RNA Pol II levels” value in data set [3] (highest concentration tested, Advanced DMEM/F12) is recorded as “slight decrease”. Moreover, in data set [4] (all seven markers), the “elevation of intracellular drug response markers” value is “did not result in elevated markers”.

With `Cc1c2oc3c(C)ccc(C(=O)N[C@@H]4C(=O)N[C@H](C(C)C)C(=O)N5CCC[C@H]5C(=O)N(C)CC(=O)N(C)[C@@H](C(C)C)C(=O)O[C@@H]4C)c3nc-2c(C(=O)N[C@@H]2C(=O)N[C@H](C(C)C)C(=O)N3CCC[C@H]3C(=O)N(C)CC(=O)N(C)[C@@H](C(C)C)C(=O)O[C@@H]2C)c(N)c1=O` [actinomycin D, Actinomycin D] (I: T[dV]P[Sar][NMeV] / II: T[dV]P[Sar][NMeV]; ester I:1-I:C, II:1-II:C; linker I:N-II:N via Actinocin(9to1)), in data set [3] (setting [10]), the “RNA Pol II levels” value was “significant decrease”. The “fold change (response, Figure 7C)” value in [5] (Advanced DMEM/F12) is recorded as 11.3; in data set [5] (TCM), 6.6; in data set [5] (standard medium), 3.1. Moreover, the EIF4B levels result in data set [6] is “significant decrease”.

`CCc1nn(CCCN2CCN(c3cccc(Cl)c3)CC2)c(=O)n1CCOc1ccccc1` [Nefazodone]: the “changes in GSH” value in data set [1] (setting [11]) is “viability dependent changes in GSH”.

With `CC(=O)O[C@H]1C(=O)[C@@]2(C)[C@H]([C@H](OC(=O)c3ccccc3)[C@]3(O)C[C@H](OC(=O)[C@H](O)[C@@H](NC(=O)c4ccccc4)c4ccccc4)C(C)=C1C3(C)C)[C@]1(OC(C)=O)CO[C@@H]1C[C@@H]2O` [Paclitaxel], the “changes in GSH” value in data set [1] (at high concentrations, increase significantly lower in both serum-free media) was “increase in GSH”.

Consider `C/C=C(/C)C(=O)O[C@H]1C(C)=C2[C@H]([C@@H]1OC(=O)CCCCCCC)[C@@](C)(OC(C)=O)C[C@H](OC(=O)CCC)[C@@]1(O)[C@H]2OC(=O)[C@@]1(C)O` [Thapsigargin], for which the “changes in GSH” value in data set [1] (at low concentrations, increase significantly lower in both serum-free media) is “increase in GSH”.

Take `C1CCC(C(CC2CCCCN2)C2CCCCC2)CC1` (stereo not shown) [Perhexiline]: in [5] (Advanced DMEM/F12 only), the PARP level result is reported as “significant increase in PARP”. In addition, the “concentrations at which cell death occurred” value in data set [4] (multiple markers drastically reduced or below detection limit) is at least 16.7 µM. For the same molecule, the “mitochondrial toxicity call (IC50Glc/IC50Gal fold change vs two-fold threshold)” value in data set [7] is given as “identified as a potential mitochondrial toxin”. The “changes in GSH” value in data set [1] (setting [11]) was “viability dependent changes in GSH”.

In the case of `CCCCc1oc2ccccc2c1C(=O)c1cc(I)c(OCCN(CC)CC)c(I)c1` [Amiodarone], in [3] (setting [10]), the “RNA Pol II levels” value was “decrease”. Besides, the PARP levels result in data set [5] (setting [12]) is reported as “elevated PARP levels”. Besides, the EIF4B levels entry in data set [6] was “decrease”. In addition, in data set [2] (setting [12]), the HSP70 levels result is on record as “decrease”. For the same molecule, in data set [8] (second highest concentration, similar in all conditions), the LC3B levels result was “elevated LC3B levels”.

Turning to `O=C1CC2(CCCC2)CC(=O)N1CCCCN1CCN(c2ncccn2)CC1` [Buspirone], the “changes in GSH” value in [1] (setting [11]) is “viability dependent changes in GSH”.

For the molecule `CO/C1=C\C(C)=C\[C@@H](C)[C@@H](O)[C@@H](C)C/C(C)=C/C=C/[C@H](OC)[C@@H]([C@@H](C)[C@@H](O)[C@H](C)[C@@]2(O)C[C@@H](O)[C@H](C)[C@@H](C(C)C)O2)OC1=O` [bafilomycin, Bafilomycin A1], the LC3B levels entry in [8] (similar response in all culture conditions) is on record as “strong increase in LC3B levels”.

Take `CC(=O)N(O)CCCCCNC(=O)CCC(=O)N(O)CCCCCNC(=O)CCC(=O)N(O)CCCCCN` [deferoxamine, Deferoxamin Mesylat]: the values for the PARP level entry in data set [5] (serum-free media) and in [5] (standard medium) were “not observed” and “increased PARP level”, respectively. The HIF-1-alpha levels entry in data set [9] (Advanced DMEM/F12, treated vs. untreated cells) is reported as “no significant increase in HIF-1-alpha levels”; in data set [9] (TCM) it was “elevated HIF-1-alpha levels”; in data set [9] (standard medium), “elevated HIF-1-alpha levels”.

For `O=C(O)Cc1ccccc1Nc1c(Cl)cccc1Cl` [Diclofenac], the “changes in GSH” value in data set [1] (setting [11]) is reported as “viability dependent changes in GSH”.
